Experimental data published in US6730792B2, “β3 adrenergic agonists” (Eli Lilly and Company, priority 2000, dated 2004).

Biological target: T1, human β3 adrenergic receptor (Homo sapiens, UniProt P13945)
T1 construct: expressed in transfected cells; host or cells: DXB-11 Chinese hamster ovary (CHO) cell line, stably transfected (phd expression vector)
Experiment: whole cell receptor coupled c-AMP assay, human β3 receptor in CHO cells (EC50, Emax relative to isoproterenol)
Type: cell-based
Conditions: % intrinsic activity relative to isoproterenol maximal response; SEM in brackets; c-AMP in transfected CHO cells
Source text: The genes encoding the human β1-adrenergic receptor (Frielle et al., Proc. Natl. Acad. Sci., 84:7920-7924, 1987), the human β2-adrenergic receptor (Kobika et al., Proc. Natl. Acad. Sci., 84:46-50, 1987, Emorine et al., Proc. Natl. Acad. Sci., 84:6995-6999, 1987) and the human β3 adrenergic receptor (Granneman et al., Molecular Pharmacology, 44(2):264-70, 1993) are individually subcloned into a phd expression vector (Grinnell et al., Bio/Technology, 5:1189-1192, 1987) and transfected into the DXB-11 Chinese hamster ovary (CHO) cell line by calcium phosphate precipitation methodology. The stably transfected cells are grown to 95% confluency in 95% Dulbecco's modified Eagles Medium (DMEM), 5% fetal bovine serum and 0.01% proline. Media is removed and the cells are washed with phosphate buffered (pH 7.4) saline (without magnesium and calcium). Cells are then lifted using an enzyme free cell dissociation solution (Specialty Media, Lavallette, N.J.) and pelleted by centrifugation.
Cells from each of the above cell lines are resuspended and added (20,000/well) to a 96-well plate. Cells are incubated at 37° C. with representative compounds of the invention for 20 minutes in buffer (Hank's balanced salt solution, 10 mM HEPES, 0.1% BSA, 1 mM L-ascorbic acid, 0.2% dimethyl sulfoxide, 1 mm 3-isobutyl-1-methylxanthine, pH 7.4). After halting the incubation with quench buffer (50 mM Na Acetate, 0.25% Triton X-100, pH 5.8), the c-AMP level is quantified by scintillation proximity assay (SPA) using a modification of the commercially available c-AMP kit (Amersham, Arlington Heights, Ill.) with rabbit anti-cAMP antibody (ICN Biomedicals, Aurora, Ohio) for the kit.
Sigmoidal dose response curves, from the whole cell receptor coupled c-AMP assay are fit to a four parameter logistic equation using non linear regression: y=(a−d)/(1+(Dose/c)^b)+d where a and d are responses at zero and maximal dose, b is the slope factor and c is the EC50 as previously described (DeLean et al., Am. J. Physiol., 235, E97-E102, 1978). EC50 is assessed as the concentration producing 50% of the maximum response to each agonist.
Isoproterenol is accepted in the art as a non-selective β3 agonist and is widely used as a comparator in evaluating the activity of compounds. See Trends in Pharm. Sci., 15:3, 1994. The % intrinsic activity (Emax) of representative compounds of the invention is assessed relative to isoproterenol by the compound's maximal response divided by the isoproterenol maximal response times 100.

T1 sequence (P13945 whole entry): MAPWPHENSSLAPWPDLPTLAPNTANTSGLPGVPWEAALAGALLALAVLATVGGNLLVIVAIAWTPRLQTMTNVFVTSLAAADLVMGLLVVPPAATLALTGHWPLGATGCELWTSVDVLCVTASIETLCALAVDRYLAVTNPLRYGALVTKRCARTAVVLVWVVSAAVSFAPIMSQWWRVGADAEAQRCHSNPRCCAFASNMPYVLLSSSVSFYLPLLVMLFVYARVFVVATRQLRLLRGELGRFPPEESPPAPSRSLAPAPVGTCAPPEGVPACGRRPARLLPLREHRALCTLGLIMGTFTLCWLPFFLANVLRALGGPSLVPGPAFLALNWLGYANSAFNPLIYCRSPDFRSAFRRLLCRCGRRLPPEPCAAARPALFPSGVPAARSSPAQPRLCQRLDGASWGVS

Structure (SMILES)	Emax
CC(C)(Cc1ccc(Oc2ncccc2C(N)=O)cc1)NC[C@H](O)COc1ccccc1-c1ccc(C(N)=O)s1 [Example 450]	67.4%

Same assay, conditions: % intrinsic activity relative to isoproterenol maximal response; average of at least 3 runs; c-AMP in transfected CHO cells

Structure (SMILES)	Emax (%) ± SEM
CC(C)(Cc1ccc(Oc2ccc(C#N)cn2)cc1)NC[C@H](O)COc1ccccc1-c1cccnc1 [Example 388]	<10%
CC(C)(Cc1ccc(Oc2ncccc2C(N)=O)cc1)NC[C@H](O)COc1ccccc1-c1cc2ccccc2o1 [Example 372]	56.3 ± 4.8%
CC(C)(Cc1ccc(Oc2ncccc2C#N)cc1)NC[C@H](O)COc1ccccc1-c1ccsc1 [Example 380]	57.4 ± 4.1%
CC(C)(Cc1ccc(Oc2ccc(C#N)cn2)cc1)NC[C@H](O)COc1c(F)cccc1-c1ccsc1.Cl [Example 426]	61.0 ± 7.1%
CC(C)(Cc1ccc(Oc2ccc(C(N)=O)cn2)cc1)NC[C@H](O)COc1ccccc1-c1cccnc1 [Example 389]	20.3 ± 2.0%
CC(C)(Cc1ccc(Oc2ccc(C#N)cn2)cc1)NC[C@H](O)COc1c(F)cccc1-c1ccco1.Cl [Example 430]	77.4 ± 9.0%
Cc1ccc(-c2ccccc2OC[C@@H](O)CNC(C)(C)Cc2ccc(Oc3ncccc3C(N)=O)cc2)s1.Cl [Example 417]	79.3 ± 2.4%

Results, then the compound that gave them:

Emax (%) ± SEM	Structure (SMILES)
49.3 ± 0.3%	CC(C)(Cc1ccc(Oc2ccc(C(N)=O)cn2)cc1)NC[C@H](O)COc1ccccc1-c1ccncc1 [Example 374]
80.6 ± 5.7%	CC(=O)c1ccc(-c2ccccc2OC[C@@H](O)CNC(C)(C)Cc2ccc(Oc3ncccc3C#N)cc2)s1.O=C(O)C(F)(F)F [Example 415]
35.1 ± 7.3%	CC(C)(Cc1ccc(Oc2ncccc2C#N)cc1)NC[C@H](O)COc1ccccc1-c1ccncc1 [Example 375]

Same assay, conditions: Emax ± SEM; average of at least 3 runs except as otherwise indicated; tested as the isolated form listed

Structure (SMILES)	Emax (%) ± SEM
CC(C)(Cc1ccc(Oc2ccccc2C(N)=O)cc1)NC[C@H](O)COc1ccccc1-c1ncco1.O=C(O)C(F)(F)F [Example 365]	80.2 ± 5.6%

Same assay, conditions: Emax ± standard error of the mean; average of at least 3 runs except where n = 1; compound tested in the isolated form listed

Structure (SMILES)	Emax (%) ± SEM
CCOC(=O)c1cccnc1Oc1ccc(CC(C)(C)NC[C@H](O)COc2ccccc2-c2ccno2)cc1 [Example 110]	60.3 ± 3.9%
CC(C)(Cc1ccc(Oc2ccc(S(C)(=O)=O)cc2)cc1)NC[C@H](O)COc1ccccc1-c1cscn1.Cl [Example 249]	35.9 ± 2.9%
COC(=O)c1ccc(Oc2ccc(CC(C)(C)NC[C@H](O)COc3ccccc3-c3ccn(C)n3)cc2)c(Cl)c1 [Example 138]	41.7 n = 1%
CC(C)(Cc1ccc(Oc2ccc(C#N)o2)cc1)NC[C@H](O)COc1ccccc1-c1cscn1.Cl [Example 260]	38.2 ± 2.0%
CCOC(=O)c1cccnc1Oc1ccc(CC(C)(C)NC[C@H](O)COc2ccccc2-c2ccnn2C)cc1 [Example 105]	<10%
CC(C)(Cc1ccc(Oc2cccnc2C(N)=O)cc1)NC[C@H](O)COc1ccccc1-c1cscn1.Cl [Example 242]	55.9 ± 4.0%
CC(C)(Cc1ccc(Oc2ncccc2C#N)cc1)NC[C@H](O)COc1ccccc1-c1cc2ccccc2[nH]1 [Example 56]	30.1 ± 2.1%
COC(=O)c1ccc(Oc2ccc(CC(C)(C)NC[C@H](O)COc3ccccc3-c3ccn[nH]3)cc2)c(Cl)c1 [Example 142]	20.2 n = 1%
CC(C)(Cc1ccc(Oc2ccc(C(N)=O)cn2)cc1)NC[C@H](O)COc1ccccc1-c1nnco1 [Example 30]	51.7 ± 2.7%
CC(C)(Cc1ccc(Oc2ncccc2C(N)=O)cc1)NC[C@H](O)COc1ccccc1-c1cnco1.Cl [Example 101]	67.4 ± 4.0%
CC(C)(Cc1ccc(Oc2cccnc2C#N)cc1)NC[C@H](O)COc1ccccc1-c1ccon1.Cl [Example 297]	74.5 ± 6.7%
CC(C)(Cc1ccc(Oc2ncccc2C(N)=O)cc1)NC[C@H](O)COc1cccc(C2=NCCN2)c1 [Example 88]	<10%
CC(C)(Cc1ccc(Oc2ccc(C(N)=O)cn2)cc1)NC[C@H](O)COc1ccccc1-n1cccc1.Cl [Example 29]	48.4 ± 5.9%
CC(C)(Cc1ccc(Oc2ccc(C#N)cn2)cc1)NC[C@H](O)COc1ccccc1-c1ccn[nH]1 [Example 8]	33.7 n = 1%
CC(C)(Cc1ccc(Oc2ccc(C#N)cn2)cc1)NC[C@H](O)COc1ccccc1-c1cccs1 [Example 5]	66.1 ± 4.8%
CC(C)(Cc1ccc(Oc2ccc(C(N)=O)cc2)cc1)NC[C@H](O)COc1ccccc1-c1ccon1.Cl [Example 299]	45.9 ± 3.9%
CC(C)(Cc1ccc(Oc2ncccc2C(N)=O)cc1)NC[C@H](O)COc1ccccc1-n1cccc1.Cl [Example 85]	69.2 ± 12.1%
CC(C)(Cc1ccc(Oc2ncccc2C#N)cc1)NC[C@H](O)COc1ccccc1N1CCCC1=O [Example 58]	21.0 ± 3.4%

Other lines, results leading:

Emax (%) ± SEM	Structure (SMILES)
78.9 ± 2.5%	CC(C)(Cc1ccc(Oc2ncccc2C#N)cc1)NC[C@H](O)COc1ccccc1-c1cccs1 [Example 50]
54.5 ± 3.3%	CC(C)(Cc1ccc(Oc2ccc(C(N)=O)cc2F)cc1)NC[C@H](O)COc1ccccc1-c1cccs1.O=C(O)C(F)(F)F [Example 190]
57.8 ± 3.1%	CC(C)(Cc1ccc(Oc2ccncc2)cc1)NC[C@H](O)COc1ccccc1-c1nccs1.O=C(O)C(F)(F)F [Example 203]
66.8 ± 5.5%	CC(C)(Cc1ccc(Oc2cnccn2)cc1)NC[C@H](O)COc1ccccc1-c1cccs1.O=C(O)C(F)(F)F [Example 153]
83.0 ± 4.0%	CC(C)(Cc1ccc(Oc2cccnc2C(N)=O)cc1)NC[C@H](O)COc1ccccc1-c1ccns1.O=C(O)C(F)(F)F [Example 199]
52.4 ± 6.9%	CC(C)(Cc1ccc(Oc2ncccc2Cl)cc1)NC[C@H](O)COc1ccccc1-c1ccno1.O=C(O)C(F)(F)F [Example 180]
59.3 ± 3.2%	CC(C)(Cc1ccc(Oc2ncc(Cl)cc2Cl)cc1)NC[C@H](O)COc1ccccc1-c1ccno1.O=C(O)C(F)(F)F [Example 174]
70.5 ± 4.9%	CC(C)(Cc1ccc(Oc2ccc(C(N)=O)nc2)cc1)NC[C@H](O)COc1ccccc1-c1ccns1.O=C(O)C(F)(F)F [Example 207]
56.9 ± 8.6%	CCOC(=O)c1cccnc1Oc1ccc(CC(C)(C)NC[C@H](O)COc2ccccc2-c2ccno2)cc1.O=C(O)C(F)(F)F [Example 112]
67.6 ± 4.7%	CC(C)(Cc1ccc(Oc2ccc(C(N)=O)cn2)cc1)NC[C@H](O)COc1ccccc1-c1cccs1 [Example 16]
73.8 ± 6.0%	CC(C)(Cc1ccc(Oc2ncccc2C(N)=O)cc1)NC[C@H](O)COc1ccccc1-c1nccs1 [Example 70]
40.8 ± 8.3%	CC(C)(Cc1ccc(Oc2ccc(C#N)nc2)cc1)NC[C@H](O)COc1ccccc1-c1ccno1.O=C(O)C(F)(F)F [Example 221]
66.2 ± 1.6%	CC(C)(Cc1ccc(Oc2ccc(S(C)(=O)=O)cc2Cl)cc1)NC[C@H](O)COc1ccccc1-c1cccs1.O=C(O)C(F)(F)F [Example 181]
49.7 ± 3.9%	CC(C)(Cc1ccc(Oc2ccc(C(N)=O)cc2Cl)cc1)NC[C@H](O)COc1ccccc1-c1nccs1.O=C(O)C(F)(F)F [Example 165]
56.1 ± 4.5%	CC(C)(Cc1ccc(Oc2ccc(Cl)cn2)cc1)NC[C@H](O)COc1ccccc1-c1nccs1.O=C(O)C(F)(F)F [Example 168]
83.7 ± 3.0%	CC(C)(Cc1ccc(Oc2ncccc2C(N)=O)cc1)NC[C@H](O)COc1ccccc1-c1cccs1 [Example 68]
